From patent US12097204B2, “Solid pharmaceutical composition containing 1,3,5-triazine derivative or salt thereof” (CHIA TAI TIANQING PHARMACEUTICAL GROUP CO., LTD., priority 2018, dated 2024) come the findings set out here.

This data set in a line: Solubility of the compound of formula I. It counts as physicochemical.

Take `CC(C)(C)ONc1nc(Nc2ccnc(C(F)(F)F)c2)nc(-c2cccc(C(F)(F)F)n2)n1` [compound of formula I, 4-(tert-butoxyamino)-6-(6-(trifluoromethyl)pyridin-2-yl)-N-(2-(trifluoromethyl)pyridin-4-yl)-1,3,5-triazin-2-amine]: the “Solubility in either acidic or basic condition” value (acidic or basic condition) is “poor solubility”. In addition, the Solubility in water result (water) was “hardly soluble”.
